# Where two headings read alike, the source gives them in different places.
# Experiments:
# [1] = molecular target: T1, off-target kinases (Homo sapiens, UniProt P29322); test: SelectScreen Kinase Profiling, single point inhibition and IC50 for off-target kinases; assay type: biochemical; details: EPHA8, ZLYTE, ATP Km app
# T1 sequence (P29322 28-1005): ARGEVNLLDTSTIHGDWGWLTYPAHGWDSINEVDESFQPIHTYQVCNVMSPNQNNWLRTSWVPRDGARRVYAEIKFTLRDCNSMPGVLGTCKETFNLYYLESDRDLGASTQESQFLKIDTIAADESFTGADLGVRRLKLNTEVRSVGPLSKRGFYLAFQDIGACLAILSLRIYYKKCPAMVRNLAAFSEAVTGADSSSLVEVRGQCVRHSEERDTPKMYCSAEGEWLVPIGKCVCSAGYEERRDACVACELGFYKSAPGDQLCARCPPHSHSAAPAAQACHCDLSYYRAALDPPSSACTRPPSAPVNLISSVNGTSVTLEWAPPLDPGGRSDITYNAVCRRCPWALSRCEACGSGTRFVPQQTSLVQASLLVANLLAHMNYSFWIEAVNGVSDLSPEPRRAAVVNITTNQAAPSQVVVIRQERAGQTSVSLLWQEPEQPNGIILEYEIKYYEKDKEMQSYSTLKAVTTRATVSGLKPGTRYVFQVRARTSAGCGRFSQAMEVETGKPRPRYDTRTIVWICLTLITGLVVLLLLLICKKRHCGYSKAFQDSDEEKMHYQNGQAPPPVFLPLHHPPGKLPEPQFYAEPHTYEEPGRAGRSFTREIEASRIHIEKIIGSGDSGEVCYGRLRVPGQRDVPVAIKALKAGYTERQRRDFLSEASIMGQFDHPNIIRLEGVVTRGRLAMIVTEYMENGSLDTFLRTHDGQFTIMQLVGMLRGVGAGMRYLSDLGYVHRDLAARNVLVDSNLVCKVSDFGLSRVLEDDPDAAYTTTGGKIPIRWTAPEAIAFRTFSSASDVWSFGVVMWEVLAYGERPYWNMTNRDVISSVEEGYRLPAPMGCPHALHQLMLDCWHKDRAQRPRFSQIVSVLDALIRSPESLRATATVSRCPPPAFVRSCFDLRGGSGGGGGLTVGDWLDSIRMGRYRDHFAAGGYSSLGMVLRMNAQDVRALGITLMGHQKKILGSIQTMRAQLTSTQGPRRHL
# [2] = molecular target: T2, off-target kinases (Homo sapiens, UniProt Q13873); test: as above; assay type: biochemical; details: BMPR2, LanthaScreen Binding
# T2 sequence (Q13873 27-1038): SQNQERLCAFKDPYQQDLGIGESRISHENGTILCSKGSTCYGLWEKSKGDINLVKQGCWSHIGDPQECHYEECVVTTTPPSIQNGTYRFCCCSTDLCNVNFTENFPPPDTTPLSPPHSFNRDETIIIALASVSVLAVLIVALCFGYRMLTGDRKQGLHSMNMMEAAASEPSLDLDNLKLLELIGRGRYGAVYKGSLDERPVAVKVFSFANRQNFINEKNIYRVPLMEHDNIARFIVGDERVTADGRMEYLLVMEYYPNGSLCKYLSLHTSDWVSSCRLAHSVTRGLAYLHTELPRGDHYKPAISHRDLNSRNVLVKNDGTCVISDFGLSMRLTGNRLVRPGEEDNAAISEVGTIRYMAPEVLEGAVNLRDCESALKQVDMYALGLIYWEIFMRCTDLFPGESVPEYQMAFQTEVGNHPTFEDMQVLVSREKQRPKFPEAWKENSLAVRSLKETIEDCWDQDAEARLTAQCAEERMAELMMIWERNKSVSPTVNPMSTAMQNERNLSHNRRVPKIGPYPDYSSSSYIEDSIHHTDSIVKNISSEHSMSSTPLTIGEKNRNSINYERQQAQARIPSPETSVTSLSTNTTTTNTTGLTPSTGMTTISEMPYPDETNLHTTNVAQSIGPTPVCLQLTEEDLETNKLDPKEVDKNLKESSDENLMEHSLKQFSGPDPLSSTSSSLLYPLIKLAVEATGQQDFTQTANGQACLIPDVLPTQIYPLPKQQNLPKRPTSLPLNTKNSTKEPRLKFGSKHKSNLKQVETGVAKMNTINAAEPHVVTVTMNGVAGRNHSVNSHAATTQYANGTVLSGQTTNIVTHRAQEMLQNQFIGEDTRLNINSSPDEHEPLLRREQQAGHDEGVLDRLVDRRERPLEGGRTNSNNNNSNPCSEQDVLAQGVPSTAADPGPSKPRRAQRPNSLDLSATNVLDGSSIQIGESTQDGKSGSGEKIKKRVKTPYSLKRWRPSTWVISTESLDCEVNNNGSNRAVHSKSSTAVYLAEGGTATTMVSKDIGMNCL
compound,measurement,setting,value
"N#Cc1cc(-c2ncnc(Nc3ccc(N4CCN(C5COC5)CC4)cc3)n2)ccc1OC1CCOCC1 [Compound 1, 5-(4-((4-(4-(oxetan-3-yl)piperazin-1-yl)phenyl)amino)-1,3,5-triazin-2-yl)-2-((tetrahydro-2H-pyran-4-yl)oxy)benzonitrile]",inhibition,[1]; read-out: % Inhibition 1,11%
same,inhibition,[1]; read-out: % Inhibition 2,7%
same,inhibition,[1]; read-out: % Inhibition Avg,9%
same,inhibition,[2]; read-out: % Inhibition 1,50%
same,inhibition,[2]; read-out: % Inhibition 2,47%
same,inhibition,[2]; read-out: % Inhibition Avg,49%

# — patent US11572590B2, “Methods for evaluating tumor cell spheroids using 3D microfluidic cell culture device” (Dana-Farber Cancer Institute, Inc., priority 2017, dated 2023)
